Source: patent US20130071874A1, “SYSTEM AND METHOD FOR ANTI-CANCER DRUG CANDIDATE EVALUATION” (priority 2010, published 2013)

Columns and labels:
[1] = tested on: ovarian cancer cell line, CAOV-3; experiment: MiCK-type apoptosis drug screening assay, CAOV-3; type: cell-based; conditions: CAOV-3 cells; as Example 1 but with higher drug concentrations
Source text: (§1) KU=(VmaxDrug Treated−VmaxControl)×60×y/(ODcell−ODblank).
(§2) Vmax is the maximum kinetic rate, which is the slope of the steep increase in the OD v. time plot when cells are undergoing apoptosis. Vmax in this equation is given in milli-optical density units/hour (mOD/h). ODcell is the initial OD of the control containing cells and ODblank is the initial OD of a blank well containing only medium or medium and drug (the drug may be omitted for some drugs, but for colored drugs in particular it may be included in the blank). y is a coefficient dependent on the cell type being assayed and may be determined experimentally through observation of the cell lines. Further information regarding this equation may be found in Kravtsov et al.
Cancer cells were obtained from exponentially growing cultures in RPMI 1640 medium without phenol red supplemented with 10% heat-inactivated fetal bovine serum, 100 U/ml penicillin and 100 μg/mL streptomycin (complete medium) in humidified air with 5% CO2 at 37° C. Cells were harvested, washed with pre-warmed medium and resuspended in complete medium. Appropriate cell counts and viability were tested.
Cells from each cell line in complete medium were placed in wells of a 96-well plate at a concentration of 2 to 5×10^5 cells/ml. Various dilutions of the drug candidate, Idarubicin, were added to the wells in 5 μL aliquots. Final concentrations for the drug candidate were 0.01, 0.1, 0.5, 1, 5, 10 and 20 μM. The plates were incubated at 37° C. for 30 minutes in a humidified 5% CO2 atmosphere. After this adjustment period, 30 μl of sterile mineral oil was layered on top of each well. The microtiter plate was placed in an incubated spectrophotometer chamber (37° C.) and OD at 600 nm was measured every 5 minutes for a period of 48 hours. The reader was calibrated to zero absorbance using well containing only complete medium and no cells. All tests were performed in triplicate.
Data acquisition and computation was performed using appropriate software. OD readings were plotted against time to provide a kinetic representation of cell responses to the drugs and drug candidate. Kinetic units were calculated for each test well. A kinetic unit below three was considered a negative response and above 3 was considered a positive response. A kinetic unit between 1.5 and 3 was considered a marginal response.
A variety of anti-cancer drugs were tested against a single ovarian cancer cell line, CAOV-3, to determine their suitability for use against ovarian cancer. Tests were performed in a manner similar to those in Example 1, but with higher drug concentrations.

[2] = tested on: MOLT-3, an acute T-cell lymphoblastic leukemia; experiment: MiCK-type apoptosis drug screening assay (OD 600 nm, kinetic units), MOLT-3; type: cell-based, human; conditions: MOLT-3 cells; 0.01-20 μM
Source text: as §1
as §2, with “al. […]” for “al.”
(§3) Cells from each cell line in complete medium were placed in wells of a 96-well plate at a concentration of 2 to 5×10^5 cells/ml. […] The microtiter plate was placed in an incubated spectrophotometer chamber (37° C.) and OD at 600 nm was measured every 5 minutes for a period of 48 hours. The reader was calibrated to zero absorbance using well containing only complete medium and no cells. […]
(§4) Data acquisition and computation was performed using appropriate software. OD readings were plotted against time to provide a kinetic representation of cell responses to the drugs and drug candidate. Kinetic units were calculated for each test well. […]

[3] = tested on: RAMOS, a B cell line derived from Burkitt's lymphoma; experiment: MiCK-type apoptosis drug screening assay (OD 600 nm, kinetic units), RAMOS; type: cell-based, human; conditions: 0.01-20 μM
Source text: as §1
as §2, with “al. […]” for “al.”
as §3, §4

Row | Compound | response / suitability (in words) [1] | kinetic unit readings versus concentration (in words) [2] | response versus concentration (in words) [3]
1 | O=C1[O][Pt]2([NH][C@@H]3CCCC[C@H]3[NH]2)[O]C1=O [Oxaliplatin] | not suitable drugs for treating ovarian cancer |  | 
2 | COc1cccc2c1C(=O)c1c(O)c3c(c(O)c1C2=O)C[C@@](O)(C(C)=O)C[C@@H]3O[C@H]1C[C@H](N)[C@H](O)[C@H](C)O1 [Daunorubicin] | positive response at reasonable concentrations |  | 
3 | CO[C@@]12[C@H](COC(N)=O)C3=C(C(=O)C(C)=C(N)C3=O)N1C[C@@H]1N[C@@H]12 [Mitomycin] | positive response at reasonable concentrations |  | 
4 | O=C1c2c(O)ccc(O)c2C(=O)c2c(NCCNCCO)ccc(NCCNCCO)c21 [Mitoxantrone] | positive response at reasonable concentrations |  | 
5 | CCc1c2c(nc3ccc(OC(=O)N4CCC(N5CCCCC5)CC4)cc13)-c1cc3c(c(=O)n1C2)COC(=O)[C@]3(O)CC [Irinotecan] | need to use high concentrations of the drug to achieve a positive response |  | 
6 | CC(=O)[C@]1(O)Cc2c(O)c3c(c(O)c2[C@@H](O[C@H]2C[C@H](N)[C@H](O)[C@H](C)O2)C1)C(=O)c1ccccc1C3=O [Idarubicin, 4-demethoxydaunorubicin] | positive response at reasonable concentrations | higher kinetic unit readings at lower concentrations | positive response was seen in the Ramos cell line only at high concentrations
7 | CCC1=C[C@@H]2CN(C1)Cc1c([nH]c3ccccc13)[C@@](C(=O)OC)(c1cc3c(cc1OC)N(C)[C@H]1[C@@](O)(C(=O)OC)[C@H](OC(C)=O)[C@]4(CC)C=CCN5CC[C@]31[C@@H]54)C2 [Vinorelbine] | not suitable drugs for treating ovarian cancer |  | 
